Measured values from patent US20080108661A1, “Medicaments” (AstraZeneca AB, priority 2006, published 2008).

Experiments:
CCR3 = target: T1, CCR3 (Homo sapiens, UniProt P51677); assay: Chemokine (CCR3 ligand) stimulation of human OA cartilage explant, gene expression (low density array Q-PCR); type: cell-based
T1 construct: Human osteoarthritic cartilage is obtained during total knee replacement surgery; from tissue; host or cells: human osteoarthritic knee articular cartilage explants (femoral condyles and tibial plateau)
T1 sequence (P51677 1-355): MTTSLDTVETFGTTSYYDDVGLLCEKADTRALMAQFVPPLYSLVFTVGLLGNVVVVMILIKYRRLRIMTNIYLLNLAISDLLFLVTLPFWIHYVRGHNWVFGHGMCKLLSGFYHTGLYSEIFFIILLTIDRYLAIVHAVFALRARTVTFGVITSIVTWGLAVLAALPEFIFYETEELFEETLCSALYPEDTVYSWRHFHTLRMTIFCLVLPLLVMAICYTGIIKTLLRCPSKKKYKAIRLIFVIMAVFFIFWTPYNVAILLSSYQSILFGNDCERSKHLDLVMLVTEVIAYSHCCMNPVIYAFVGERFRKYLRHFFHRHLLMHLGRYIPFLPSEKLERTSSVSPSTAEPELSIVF
Text: (ii) Chemokine Stimulation of Human Cartilage Explant
Human osteoarthritic cartilage is obtained during total knee replacement surgery. Full-depth cartilage slices are obtained from both the femoral condyles and the tibial plateau and explant discs removed using a 5 mm diameter KAI sterile dermal biopsy punch. After dissection, the explants are all pooled in a Petri dish. For each condition, sixteen explants are randomly taken from the Petri dish and cultured in polypropylene 96-well plates with phenol red free Dulbecco's Modified Eagle Medium (DMEM; Gibco, Grand Island, N.Y.), 150 μg/ml gentamicin, 1.5 μg/ml fungizone and 100 units/ml penicillin, 100 μg/ml streptomycin and L-Glutamine.
After an initial 48 hour pre-stimulation, rest period, experimental reagents are added for 24, 48 or 96 hours. Explants are incubated with the appropriate concentration of compound alone, or DMSO as a control, for 20 minutes prior to addition of the chemokine. Cartilage is subsequently treated with either vehicle control (plus DMSO); chemokine (at 30-300 ng/ml) plus DMSO; or chemokine (30 ng/ml) plus the compound of Example 1. Conditioned media are collected 24, 48 or 96 hours post stimulation and stored at −20° C. prior to analysis. Cartilage explants are also collected and snap frozen in liquid nitrogen, prior to RNA extraction.
Extraction of RNA from Cartilage Explants
Each condition is composed of sixteen cartilage explant discs, which are pooled prior to snap freezing in liquid nitrogen. These pooled samples are ground to a fine powder under liquid nitrogen then resuspended in 10 ml trizol in polypropylene Oakridge tubes, and RNA extracted according to the manufacturer's protocol. The RNA pellet is resuspended in approx 500 μl RNAse and DNAse free water and then combined with 1.75 ml Qiagen RLT. RNA is further purified with Qiagen RNEasy mini columns (Qiagen Cat# 74104), as described in the manufacturer's protocol, including on column DNA digestion. The RNA obtained by these procedures is analysed using Agilent bioanalyser technology, according to the manufacturer's instructions, to determine the quantity and quality.
Gene Expression Analysis: the 96 and 48 Gene Fingerprints Using Low Density Arrays (Q-PCR)
Low-density gene arrays [quantitative polymerise chain reaction (Q-PCR) method] with either 96 or 48 genes pertinent to OA (as identified by Affymetrix microarray analysis of OA articular cartilage) are used to assess the effects of treating human diseased cartilage explants with the chemokines eotaxin-2 or RANTES, alone or in combination with the compound of Example 1. Gene expression changes were reported as fold change normalised against a standard non-affected gene: GAPDH.

[1] = tested on: human articular chondrocytes (HAC)
Description: (i) Isolation of Human Articular Chondrocytes (HAC) from OA Cartilage for Histamine stimulation. HAC are isolated from cartilage from osteoarthritic tissues removed at joint replacement. Cartilage is incubated overnight in 2 mg/ml collagenase in DMEM+10% FCS+PSG at 37° C., with shaking. The resulting cell suspension is filtered to remove undigested cartilage and the cells are centrifuged at 1200 rpm for 10 minutes. Cells are resuspended in DMEM plus 10% FCS PSG/NEAA/fungizone/gentamycin, plated at approx 5×10^−6 in a T-75 and grown to confluence. Cells are subsequently plated at approx 10,000 cells per well into 96 well plates for stimulation with histamine. Triplicate wells of first passage HAC are treated with either DMEM (10% or 0% FCS) alone (control), or DMEM (10% or 0% FCS) plus histamine (dose range 10 nM up to 1 mM). Cells are incubated at 37° C. for 24 hours, the conditioned medium harvested, and assayed for PGE2, MMP or cytokine production by enzyme linked immunosorbent assay (ELISA). […] For some experiments cells are incubated with specific antagonists for 20 minutes prior to, and in combination with, histamine stimulation.

[2] = tested on: human articular chondrocytes (HAC); remark: listed apart in the source
[3] = tested on: murine articular knee joint; assay: Histamine-induced joint oedema, murine articular knee joint (calliper measurements); type: in vivo, mouse
Text: (§1) (iii) In Vivo Functional Validation of Histamine-Induced Responses Murine Articular Knee Joint
(§2) It is hypothesised that histamine released by trafficking mast cells or by the de novo synthesis of histamine by articular chondrocytes induces a H1-dependant increase in COX-2 mRNA expression and elevated PGE2 synthesis in synovial fibroblasts and articular chondrocytes. To evaluate the role of histamine in pathological processes in the joint, a pharmacodynamic mouse model was developed to investigate the effect of intra-articular injection (IAI) of histamine on joint swelling using calliper measurements, and measuring PGE2 and/or 11-6 levels from synovial knee joint ravages.
(§3) Adult C57B16 mice were dosed with either vehicle or test compound 1 hour prior to intra-articular injection of histamine (5 μmol). Swelling was induced by injection of 6 μl of histamine/saline suspension into the knee joint cavity under inhalation anaesthesia with isoflurane. Joint swelling was quantified by calliper measurements taken at 1, 6, 12, 24, 36 and 48 hr. Terminal synovial fluid knee lavages were sampled and levels of the inflammatory mediator I1-6 were measured in the fluid from synovial knee joint ravages.

[4] = tested on: murine articular knee joint; details: intra-articular histamine injection, mice
Text: as §1, §2, §3

[5] = Eotaxin 2 stimulation, donor 014—04

O=C(NC[C@@H](O)CN1CCC(Oc2ccc(Cl)c(Cl)c2)CC1)c1sc(=O)[nH]c1C(F)(F)F [Example 1, N-{(2R)-3-[4-(3,4-Dichlorophenoxy)piperidin-1-yl]-2-hydroxypropyl}-2,3-dihydro-2-oxo-4-(trifluoromethyl)-5-thiazolecarboxamide benzenesulfonate Form A]
inhibition of CCR3 ligand-induced increase in ADAMTS4, MMP13, IL-6, IL-8 and MMP2 mRNA expression (CCR3; at 3×pA2, n=3 (FIG. 3)): inhibited

O=C(O)COCCN1CCN(C(c2ccccc2)c2ccc(Cl)cc2)CC1 (stereo not shown) [cetirizine]
inhibition of histamine-induced PGE2 release ([1]; 100 nM (FIG. 2)): inhibited
inhibition of histamine-induced increase in Cox2 mRNA expression ([2]; 100 nM): inhibited

Clc1ccc2c(c1)CCc1cccnc1C2=C1CCNCC1 [desloratadine]
histamine-induced joint swelling under treatment ([3]; 5.1 mg/kg, dosed 1 hour prior to intra-articular histamine): almost completely ablated

NCCc1c[nH]cn1 [histamine, 2-(4-imidazolyl)-ethylamine]
increase in joint oedema compared to vehicle control animals ([3]; intra-articular injection of histamine (5 μmol), C57B16 mice): 5 fold
increase in release of IL-6 into the synovial fluid [4]: > 60%
release of PGE2 ([1]; histamine stimulation, n=6 (FIG. 2)): dose dependent increase
Cox2 mRNA expression levels ([2]; histamine stimulation): increase

B1: Eotaxin 2: the CCR3 ligand, a chemokine used to stimulate cartilage explants (protein, UniProt O00175 27-119, looked up)
C-C motif chemokine 24: VVIPSPCCMFFVSKRIPENRVVSYQLSSRSTCLKAGVIFTTKKGQQFCGDPKQEWVQRYMKNLDAKQKKASPRARAVAVKGPVQRYPGNQTTC
increased expression of IL-6 (CCR3; [5]): 14 fold
increased expression of IL-8 (CCR3; [5]): 11 fold
elevation of periostin expression (CCR3; donor 014—04): 2 fold
enhanced expression of ADAMTS4 (CCR3; donor 014—04): 3.6 fold
enhanced expression of ADAMTS 5 (CCR3; donor 014—04): 6 fold
